Measured values reported in US10111847B2, “Compounds and methods for modulating vascular injury” (The Regents of the University of California, priority 2012, dated 2018).

Columns and labels:
NOX4 = test: TNFα induced NADPH-oxidase 4 expression, western blot; type: cell-based, human; settings: 30 min pretreatment, TNFα 10 ng/ml 4 hr; sv-VSMCs
Protocol: (§1) Mar-1. VSMCs and ECs were lysed in buffer (20 mM Tris-Hcl, 137 mM NaCl, 10% Glycerol, 1% NP-40) with protease and phosphatase inhibitors (Halt inhibitor capsules, Pierce, Inc) by sonication on ice. The lysates were instantly snap frozen in liquid nitrogen and thawed back later for western blotting. After centrifugation (15,000 g for 20 minutes), the whole cell extract (supernatant) was collected and was heated at 100° C. in Laemlli buffer for 6 minutes. Lysates were run on Mini-Protean TGX gels
(§2) (Biorad) and transferred on PVDF membranes which were probed with appropriate primary and secondary antibodies and visualized for quantitation using q-dot nanocrystals (Life Technologies, Inc).
NADPH oxidases (NOX) are the dominant source of superoxide generation in blood vessels and have been strongly implicated in vascular injury. NOX4 is a dominant isoform bound in VSMC and blood vessels. Regulation of NOX4 expression and activity therefore is of interest. Human sv-VSMCs were pretreated with 7S-Maresin-1 or vehicle for 30 min, followed by TNFα at 10 ng/ml for 4 hr. Whole cell lysates were blotted for NOX4 (Abcam Inc.) and beta-actin (Sigma).
FIG. 14. NOX4 and beta-actin western blotting image is representative of three independent experiments. Bar graph represents net quantitative densitometry analysis. N=3. […]

VCAM-1 = VCAM-1 expression in TNFα treated VSMC, western blot; type: cell-based, human; settings: 10 and 100 nM; TNFα 10 ng/ml 4 hr; P=0.20 compared to TNFα
Protocol: as §1, §2
FIGS. 15A-15D. Representative images of Calcein-AM labeled U937 monocytes adhered to human sv-VSMCs pretreated with vehicle (A, B) or 7S-Maresin-1 (C) or 7S-Maresin-1 and pertussis toxin (D) for 30 min, followed by TNFα at 10 ng/ml for 4 hr (B, C, D). (E) Quantitative analysis of U937 adhesion assay in human sv-VSMCs and (F) human sv-ECs (1 ng/ml TNFα used for EC cells). […] Bar graph represents net quantitative densitometry analysis. […] Expression of MCP-1 was measured by qRT-PCR, and normalized to unstimulated cells (n=3, results are mean±SEM, P<0.05 for Mar-1 (10 and 100 nM) vs TNF alone, unpaired t-test).

p65 subunit = test: Nuclear translocation of p65 subunit in sv-ECs (immunofluorescence); type: cell-based, human; settings: 100 nm, 30 min; TNFα 1 ng/ml 2 hrs
Protocol: Immunofluorescence for p65 (RelA): 15000 VSMCs or 30000 ECs were seeded on a 8-well chamber slide. Cells received 30 min of Maresin-1 pretreatment, followed by TNF-α for 2 hr. Cells were fixed in 2% paraformaldehyde, followed by permeabilization with ice-cold acetone (10 min) and 1% Triton X-100 (20 min). Cells were incubated overnight in a humidified chamber with anti-p65 antibody (Santa Cruz Biotechnology Inc.) followed by Alexa-fluor 488 tagged secondary antibody (Life Technologies) and were visualized under a fluorescent microscope.
ECs were grown in chamber slides and treated with vehicle or 100 nm of 7S-Maresin-1 for 30 min, followed by TNFα (1 ng/ml) for 2 hrs. Cells were fixed and subsequently stained with anti-p65 (Santa Cruz Biotechnology) and secondary antibodies (Alexa-488).
FIGS. 17A-17D. Representative images of Ctrl (A), TNFα (B), 7S-Maresin-1+TNFα. (C). (D) Mean fluorescence of nucleus and cytoplasm were quantified from all groups and the net result of the ratio of nucleus over cytoplasmic mean fluorescence is depicted in the bar graph, as a measure of relative p65 nuclear translocation. (N>=3). P≤0.05, One-way ANOVA with Dunnett's post hoc test. *: P≤0.05 compared to control, unpaired t-test. †: P≤0.05 compared to TNFα, unpaired t-test. Error bars: SEM.

carotid artery = test: Mouse carotid artery ligation model, neointima formation; type: in vivo, FVB Mice; settings: intraperitoneal 100 ng/dose on days 0, 1, 3, 5 and 7; sacrificed at 14 days
Protocol: To examine the potential therapeutic effects of systemic administration of pro-resolving mediators in acute vascular injury, a standardized mouse model of carotid ligation was employed. FVB Mice (N=23) were treated with intraperitoneal administration of RvD2 (100 ng/dose), 7R Mar-1 (100 ng/dose) or vehicle on days 0 (4 hrs prior to carotid injury), 1, 3, 5 and 7. Total dose received was 500 ng/mouse. Unilateral carotid ligation was performed as a standardized model of vascular injury, induced by low shear. Animals were then sacrificed at 14 days and perfusion-fixed vessels explanted for analysis. Following elastin staining, neointima (NI) and medial (M) compartments were measured by a blinded observer, and ratios (area and average wall thickness) calculated. Analysis was performed at mid CCA level (2.5 mm from ligature).
FIG. 22. (A)-(C), depict a cross-section of a carotid artery at mid CCA level (2.5 mm from ligature) from carotid ligation mouse model administered vehicle (A), RvD2 (B), or 7R-Mar-1 (C). (D)-(E) depict NUM ratio of the cross-section of the carotid artery at mid CCA level from carotid ligation mouse model administered vehicle, RvD2, or 7R-Mar-1. […]

Structure (SMILES)	TNFα induced NADPH-oxidase 4 expression (NOX4)	VCAM-1 expression by Western blot (VCAM-1)	nuclear translocation of p65 subunit in human sv-ECs (p65 subunit)	neointima formation following carotid artery ligation (carotid artery)
CC/C=C\C/C=C\C[C@H](O)\C=C/C=C/C=C/[C@@H](O)C/C=C\CCC(=O)O [7S-Maresin-1, 7S,14R-dihydroxydocosa-4Z,8E,10Z,12Z,16Z,19Z-hexaenoic acid]	Attenuates	inhibition of VCAM-1 expression	Inhibits	
CC/C=C\C[C@H](O)[C@H](O)/C=C/C=C/C=C\C=C\[C@@H](O)C/C=C\CCC(=O)O [RvD2, resolvin D2]				Reduces
